From patent US20220024921A1, “1,3,4-OXADIAZOLONE COMPOUND AND PHARMACEUTICAL” (NIPPON SHINYAKU CO., LTD., priority 2018, published 2022) come the findings set out here.

Test [1] has as its target T1, PIM3 serine/threonine kinase (Homo sapiens, UniProt Q86V86).
T1 construct: purchased Carna Bioscience, Inc
The experiment in a line: PIM3 serine/threonine kinase inhibitory effect. In kind it is biochemical. Particulars: PIM3 serine/threonine kinase activity; ATP 10 μM; 30° C., 30 minutes. On the procedure: (§1) Each test substance was prepared to 10 mM with dimethylsulfoxide (DMSO), and further diluted with DMSO so as to have concentrations of 1000, 300, 100, 30, 10, 3, 1, 0.3, 0.1, 0.03, 0.01, and 0.001 μM. Moreover, each dilution was further diluted 33.3-fold with an assay buffer to prepare a test substance solution. The composition of the assay buffer was 50 mM HEPES (pH 7.0), 0.02% NaN3, 0.01% Bovine Serum Albumin, 0.1 mM Orthovanadate, 1 mM Dithiothreitol, and 5 mM MgCl2.
(§2) 5 μL of each test substance solution was added to 384-well plates (n=2), and then 2.5 μL of a substrate solution (substrate 3-biotin (Cisbio Bioassays SAS), final concentration in the reaction solution: 0.5 μM) and 2.5 μL of an ATP solution (in the cases of PIM1, 2, 3, the final concentrations in the reaction solutions were 40, 2, and 10 μM, respectively) were added, 5 μL of each of PIM1, 2, 3 serine/threonine kinase solutions (Carna Bioscience, Inc., the final concentrations in the reaction solutions were 0.15, 1.6, and 0.25 μg/ml, respectively) was finally added, and the mixture was reacted at 30° C. for 30 minutes. The test substance concentrations in the reaction solutions are 10000, 3000, 1000, 300, 100, 30, 10, 3, 1, 0.3, 0.1, and 0.01 nM.
(§3) Thereafter, 15 μL of each detection solution (62.5 nM Streptavidin-XL665 (Cisbio Bioassays SAS), […] STK antibody-Cryptate (Cisbio Bioassays SAS), 50 mM HEPES (pH 7.0), 0.8 M KF, 0.1% Bovine Serum Albumin, 20 mM ethylenediaminetetraacetic acid) was added to each well. After stirring, the mixture was reacted at 30° C. for 1 hour. Absorbance (OD620, OD665) at 620 and 665 nm was measured with a microplate reader (SpectraMax M5e, Molecular Devices, LLC).
(§4) Non-linear regression analysis was performed by an SAS system (SAS Institute Inc.) using the ratio (OD665/OD620) of the measured absorbance to calculate a test substance concentration (IC50) that inhibits PIM1 serine/threonine kinase activity by 50%.
(§5) For the compounds with the following Example numbers, in addition to the above PIM1 serine/threonine kinase activity (IC50), test substance concentrations (IC50) that inhibit PIM2 serine/threonine kinase activity and PIM3 serine/threonine kinase activity by 50% were calculated.

Test [2] addresses T2, PIM2 serine/threonine kinase (Homo sapiens, UniProt Q9P1W9).
T2 construct: purchased Carna Bioscience, Inc
As to the kind of experiment: PIM2 serine/threonine kinase inhibitory effect. In kind it is biochemical. Conditions: PIM2 serine/threonine kinase activity; ATP 2 μM; 30° C., 30 minutes. As for the experimental part:
as §1, §2, §3, §4, §5

The target in test [3] is T3, PIM1 serine/threonine kinase (Homo sapiens, UniProt P11309).
T3 construct: purchased Carna Bioscience, Inc
T3 sequence (P11309 whole entry): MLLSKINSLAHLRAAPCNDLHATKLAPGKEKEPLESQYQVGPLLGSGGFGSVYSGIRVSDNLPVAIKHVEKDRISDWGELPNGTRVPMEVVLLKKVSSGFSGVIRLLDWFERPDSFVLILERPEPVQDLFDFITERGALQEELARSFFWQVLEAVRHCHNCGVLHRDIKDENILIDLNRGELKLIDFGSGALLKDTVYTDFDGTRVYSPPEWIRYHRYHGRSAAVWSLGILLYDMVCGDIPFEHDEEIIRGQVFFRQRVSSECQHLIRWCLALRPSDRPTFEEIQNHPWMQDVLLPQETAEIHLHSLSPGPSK
The experiment in a line: PIM1 serine/threonine kinase inhibitory effect. Format: biochemical. Conditions: PIM1 serine/threonine kinase activity; ATP 40 μM; 30° C., 30 minutes. Summed up: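 Recombinant PIM1 (0.15 μg/ml final) with 0.5 μM biotinylated substrate and 40 μM ATP in pH 7.0 HEPES/MgCl2 buffer, 30 min at 30° C. Compound range was 0.01–10000 nM final, n=2. HTRF detection with streptavidin-XL665 and anti-phospho antibody-cryptate, 1 h; IC50 from non-linear regression of the 665/620 ratio.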

In test [4] the target is PIM1 transgenic cells (Ba/F3) (Homo sapiens, UniProt P11309). As to the kind of experiment: Proliferation inhibitory effect on PIM1 transgenic cells. Format: cell-based, mouse. Conditions: proliferation inhibition, 72 hours, Cell Counting Kit-8, read-out: PIM1 IC50. Summed up:
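Mouse Ba/F3 pro-B cells were retrovirally transduced with human PIM1 so that their proliferation depends on PIM1. Cells were treated with compound at 1–10000 nM final for 72 h, then read by CCK-8 (OD450−OD650). Inhibition was set against DMSO (0%) and no-cell blank (100%), and IC50 was obtained by two-parameter logistic regression.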

The test system of test [5] is graft-versus-host disease model CB6F1 mice. As to the kind of experiment: Lymphocyte proliferation inhibitory effect using graft-versus-host disease model animals (splenomegaly formation). In kind it is in vivo. Conditions: Mus musculus, 240 h, oral, twice a day for 10 days, GVHD model CB6F1 mice, read-out: Inhibition rate (%) (splenomegaly formation); for inhibition in vivo at 3 mg/kg: single dose 3 mg/kg; for inhibition in vivo at 10 mg/kg: single dose 10 mg/kg. On the procedure:
BALB/c mice (8-week-aged female) were euthanized, and then the spleen was removed from each mouse. Then, hemolysis treatment was performed to isolate spleen cells. The obtained spleen cells were intravenously transplanted into CB6F1 mice (8-week-aged female), which are C57BL/6 and BALB/c F1 mice, to prepare a model, and splenomegaly was induced. For transplantation, spleen cells for 1.2 BALB/c mouse were used for one CB6F1 mouse.
Each test substance shown in Table 64 was weighed and dissolved in a 0.5% methyl cellulose solution, thereby preparing test substance solutions of 0.3 to 10 mg/mL.
A vehicle (0.5% methyl cellulose solution) or test substance was orally administered to each CB6F1 mouse after transplantation at a dose of 3 to 50 mg/kg in terms of body weight twice a day for 10 days from the day after transplantation. The mouse was euthanized on the 11th day from the start of administration, then the spleen was removed therefrom, and the wet weight of the spleen was measured. For each of CB6F1 mice that had not undergone transplantation as a control group, the wet weight of the spleen was also measured.
The splenomegaly formation inhibition rate when the spleen weights of the mice to which the vehicle was administered after transplantation and the mice on which transplantation had not been performed were 0% and 100%, respectively, was calculated.

In test [6] the target is PIM3 transgenic cells (Ba/F3) (Homo sapiens, UniProt Q86V86). The experiment in a line: Proliferation inhibitory effect on PIM3 transgenic cells. In kind it is cell-based, mouse. Conditions: proliferation inhibition, 72 hours, Cell Counting Kit-8, read-out: PIM3 IC50. The source says: (§6) Human PIM1, 2, and 3 genes were inserted into the multi-cloning sites of retrovirus expression vectors pMYs-IRES-GFP, respectively, to prepare gene transfer vectors. Then, each gene transfer vector was introduced into packaging cells PLAT-E derived from a human fetal kidney cell line in the logarithmic growth phase, using a transfection reagent (FuGENE6, Promega Corporation). Since the culture supernatant of PLAT-E after gene transfer contained virus particles for gene transfer, the culture supernatant was collected and used as a medium for gene transfer. The medium for gene transfer was added to a plate coated with RetroNectin, and the plate was incubated to attach the virus particles to the plate. Then, a mouse pro-B cell line Ba/F3 in the logarithmic growth phase was seeded on the plate and infected with the virus to prepare PIM1, 2, or 3 transgenic cells that proliferate in a PIM 1, 2, or 3-dependent manner. The expression of PIM1, 2, or 3 protein in each cell was confirmed by Western blotting.
(§7) Each test substance was prepared to 10 mM with dimethylsulfoxide (DMSO), and diluted with DMSO so as to have concentrations of 3000, 1000, 300, 100, 30, 10, 3, and 1 μM. Moreover, each dilution was further diluted 10-fold with distilled water to prepare a test substance solution.
(§8) PIM1, 2, 3-expressing cells were seeded on a 96-well plate, and each test substance solution prepared the next day was added such that final concentrations were 10000, 3000, 1000, 300, 100, 30, 10, 3, and 1 nM. 72 hours after the addition, 10 μL of Cell Counting Kit-8 (DOJINDO LABORATORIES) was added to each well. After incubation for 1 to 4 hours, absorbance OD450 at 450 nm was measured. In addition, absorption OD650 at 650 nm as a reference wavelength was measured.
(§9) OD450-OD650 for each condition was calculated, and then the inhibition rates when OD450-OD650 of negative control (DMSO only) and OD450-OD650 of Blank (without cells) were set to 0% and 100%, respectively, were calculated. Then, non-linear regression analysis was performed for logarithmic dose and inhibition rate using a two-parameter logistic model to estimate IC50 values.
(§10) For the compounds with the following Example numbers, in addition to the above proliferation inhibitory effect on PIM1 transgenic cells, the proliferation inhibitory effect on PIM2 transgenic cells and the proliferation inhibitory effect on PIM3 transgenic cells were calculated as IC50.

In test [7] the target is PIM2 transgenic cells (Ba/F3) (Homo sapiens, UniProt Q9P1W9). As to the kind of experiment: Proliferation inhibitory effect on PIM2 transgenic cells. In kind it is cell-based, mouse. Conditions: proliferation inhibition, 72 hours, Cell Counting Kit-8, read-out: PIM2 IC50.
Sequence of PIM2 transgenic cells (Ba/F3) (Q9P1W9 whole entry, change not shown): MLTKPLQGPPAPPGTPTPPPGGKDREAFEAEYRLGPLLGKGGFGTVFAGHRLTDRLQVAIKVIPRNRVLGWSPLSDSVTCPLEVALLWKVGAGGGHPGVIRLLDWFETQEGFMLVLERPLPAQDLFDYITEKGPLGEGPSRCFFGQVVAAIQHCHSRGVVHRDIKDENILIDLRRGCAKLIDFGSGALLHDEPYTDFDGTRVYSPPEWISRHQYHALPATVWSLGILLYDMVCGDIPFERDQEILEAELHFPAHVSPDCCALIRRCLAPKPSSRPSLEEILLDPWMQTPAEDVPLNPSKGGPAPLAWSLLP
Description: as §6, §7, §8, §9, §10

Structures are written as SMILES. Structures can show the parent of a compound that is named as a salt.

T2 sequence (Q9P1W9 whole entry): as the sequence (Q9P1W9 whole entry, change not shown) above
Sequence of PIM1 transgenic cells (Ba/F3) (P11309 whole entry, stated change not applied): as the sequence (P11309 whole entry) above

As to `C[C@@H](Nc1cc(-c2n[nH]c(=O)o2)ccc1C(F)(F)F)C1CCNCC1` [Example 59, 5-[3-{[(1R)-1-(piperidin-4-yl)ethyl]amino}-4-(trifluoromethyl)phenyl]-1,3,4-oxadiazol-2(3H)-one hydrochloride], the IC50 in test [1] stood at 85 nM; in test [2], 98 nM; in test [3], 16 nM. Also, in test [4], the GI50 is 320 nM.
The like results for `N[C@H]1CC[C@H](CNc2cc(-c3n[nH]c(=O)o3)ccc2Cl)CC1` [Example 61, 5-[3-({[(1r,4r)-4-aminocyclohexyl]methyl}amino)-4-chlorophenyl]-1,3,4-oxadiazol-2(3H)-one hydrochloride] were, in that order, 5 nM, 19 nM, 1 nM and 44 nM.
Consider `CC(Nc1cc(-c2n[nH]c(=O)o2)ccc1C(F)(F)F)[C@H]1CC[C@H](N)CC1` (stereo partly drawn) [Example 63, 5-[3-({1-[(1r,4r)-4-aminocyclohexyl]ethyl}amino)-4-(trifluoromethyl)phenyl]-1,3,4-oxadiazol-2(3H)-one hydrochloride], for which the IC50 in test [1] amounted to 5 nM; in test [2], 13 nM; in test [3], 0.7 nM. Further, the GI50 in test [4] came out at 28 nM.
For `N[C@H]1CC[C@H](CNc2cc(-c3n[nH]c(=O)o3)ccc2OC(F)(F)F)CC1` [Example 66, 5-[3-({[(1r,4r)-4-aminocyclohexyl]methyl}amino)-4-(trifluoromethoxy)phenyl]-1,3,4-oxadiazol-2(3H)-one hydrochloride], the IC50 in test [1] came to 18 nM; in test [2], 90 nM; in test [3], 4.7 nM. For the same compound, the GI50 in test [4] is 190 nM.
Regarding `N[C@H]1CC[C@H](CNc2cc(-c3n[nH]c(=O)o3)ccc2Br)CC1` [Example 68, 5-[3-({[(1r,4r)-4-aminocyclohexyl]methyl}amino)-4-bromophenyl]-1,3,4-oxadiazol-2(3H)-one hydrochloride], the IC50 in test [1] worked out at 5 nM; in test [2], 18 nM; in test [3] it was 1.4 nM. Besides, the GI50 in test [4] turned out to be 61 nM.
With `N[C@H]1CC[C@H](CNc2cc(-c3n[nH]c(=O)o3)cc(F)c2C(F)(F)F)CC1` [Example 69, 5-[3-({[(1r,4r)-4-aminocyclohexyl]methyl}amino)-5-fluoro-4-(trifluoromethyl)phenyl]-1,3,4-oxadiazol-2(3H)-one hydrochloride], the IC50 in test [1] was 4 nM; in test [2], 7 nM; in test [3], 1.1 nM. Besides, in test [4], the GI50 came to 37 nM.
Regarding `C[C@@H]1CNCC[C@@H]1[C@H](C)Nc1cc(-c2n[nH]c(=O)o2)cc(F)c1OC(F)(F)F` [Example 219, 5-[3-fluoro-5-({(1S)-1-[(3S,4S)-3-methylpiperidin-4-yl]ethyl}amino)-4-(trifluoromethoxy)phenyl]-1,3,4-oxadiazol-2(3H)-one], the inhibition in vivo at 3 mg/kg in test [5] is 27.7%. Besides, in test [5], the inhibition in vivo at 10 mg/kg came out at 33.8%. The GI50 worked out at 40 nM in test [6], 11 nM in test [4] and 1100 nM in test [7]. This compound yielded an IC50 in test [3] of 1.8 nM.
Turning to `C[C@H](Nc1cc(-c2n[nH]c(=O)o2)cc(F)c1C(F)(F)F)[C@H]1CCNC[C@H]1F` [Example 223, 5-[3-fluoro-5-({(1S)-1-[(3S,4R)-3-fluoropiperidin-4-yl]ethyl}amino)-4-(trifluoromethyl)phenyl]-1,3,4-oxadiazol-2(3H)-one hydrochloride], the inhibition in vivo at 3 mg/kg in test [5] came to 34.1%. In addition, in test [5], the inhibition in vivo at 10 mg/kg stood at 36.8%. The values for the GI50 in test [6], in test [4] and in test [7] were 59 nM, 11 nM and 290 nM, respectively. In test [3], this compound yielded an IC50 of 1.6 nM.
As to `C[C@H](Nc1cc(-c2n[nH]c(=O)o2)cc(F)c1OC(F)(F)F)[C@H]1CCNC[C@H]1F` [Example 224, 5-[3-fluoro-5-({(1S)-1-[(3S,4R)-3-fluoropiperidin-4-yl]ethyl}amino)-4-(trifluoromethoxy)phenyl]-1,3,4-oxadiazol-2(3H)-one], the inhibition in vivo at 3 mg/kg in test [5] came to 22.8%. For the same compound, the inhibition in vivo at 10 mg/kg in test [5] was found to be 39.1%. Besides, the values for the GI50 in test [6], in test [4] and in test [7] were 35 nM, 7.1 nM and 510 nM, respectively. Further, in test [3], the IC50 amounted to 0.8 nM.
